Laboratory results as given in ChEMBL document CHEMBL4840375, “Ring A/B-Modified 17β-Hydroxywithanolide Analogues as Antiproliferative Agents for Prostate Cancer and Potentiators of Immunotherapy for Renal Carcinoma and Melanoma” (J Nat Prod, 2021).

Experiments:
[1] = test system: M14; assay: Antiproliferative activity against human M14 cells assessed as inhibition of cell proliferation incubated for 72 hrs by MTT assay; assay type: functional, cell-based; conditions: M14, 72 h
[2] = test system: HFF; assay: Cytotoxicity against human HFF cells assessed as reduction in cell viability incubated for 72 hrs by MTT assay; assay type: cell-based
[3] = test system: CWR22R; assay: Antiproliferative activity against human 22Rv1 cells assessed as inhibition of cell proliferation incubated for 72 hrs by MTT assay; assay type: functional, cell-based; conditions: 22Rv1, 72 h
[4] = test system: LNCaP; assay: Antiproliferative activity against human LNCaP cells assessed as inhibition of cell proliferation incubated for 72 hrs by MTT assay; assay type: functional, cell-based
[5] = test system: SK-MEL-28; assay: Antiproliferative activity against human SK-MEL-28 cells assessed as inhibition of cell proliferation incubated for 72 hrs by MTT assay; assay type: functional, cell-based; conditions: SK-MEL-28, 72 h
[6] = test system: SK-MEL-28; assay: Potentiation of poly I:C-induced antiproliferative activity against human SK-MEL-28 cells assessed as reduction in cell numbers by measuring IC50 pretreated with compound for 2 hrs followed by poly I:C addition and measured after 48 hrs by MTT assay; assay type: functional, cell-based; further: test concentration or dose not given here
[7] = test system: SK-MEL-28; assay: Antiproliferative activity against human SK-MEL-28 cells assessed as inhibition of cell proliferation incubated for 48 hrs by MTT assay; assay type: functional, cell-based; conditions: SK-MEL-28, 48 h
[8] = test system: ACHN; assay: Antiproliferative activity against human ACHN cells assessed as inhibition of cell proliferation incubated for 24 hrs by MTT assay; assay type: functional, cell-based
[9] = test system: M14; assay: Antiproliferative activity against human M14 cells assessed as inhibition of cell proliferation incubated for 48 hrs by MTT assay; assay type: functional, cell-based; conditions: M14, 48 h
[10] = test system: M14; assay: Potentiation of poly I:C-induced antiproliferative activity against human M14 cells assessed as reduction in cell numbers by measuring IC50 pretreated with compound for 2 hrs followed by poly I:C addition and measured after 48 hrs by MTT assay; assay type: functional, cell-based; further: test concentration or dose not given here
[11] = test system: ACHN; assay: Potentiation of TRAIL-induced antiproliferative activity against human ACHN cells assessed as reduction in cell numbers by measuring IC50 pretreated with compound for 2 hrs followed by TRAIL addition and measured after 24 hrs by MTT assay; assay type: functional, cell-based; further: test concentration or dose not given here
[12] = test system: ACHN; assay: Antiproliferative activity against human ACHN cells assessed as inhibition of cell proliferation incubated for 72 hrs by MTT assay; assay type: functional, cell-based
[13] = Selectivity ratio of IC50 for HFF cells to IC50 for human LNCaP cells; assay type: toxicity; conditions: HFF cells versus LNCaP cells, read-out: Ratio IC50
[14] = Selectivity ratio of IC50 for HFF cells to IC50 for human 22Rv1 cells

Row | Compound | IC50 [1] [µM] | IC50 [2] [µM] | IC50 [3] [µM] | IC50 [4] [µM] | IC50 [5] [µM] | IC50 [6] [µM] | IC50 [7] [µM] | IC50 [8] [µM] | IC50 [9] [µM] | IC50 [10] [µM] | IC50 [11] [µM] | IC50 [12] [µM] | selectivity ratio [13] | Ratio IC50 [14]
1 | CC(=O)OC[C@]12CC[C@H]3[C@@H](CC=C4[C@@H](O)C=CC(=O)[C@@]43C)[C@]1(O)CC[C@@]2(O)[C@@](C)(O)C1CC(C)=C(C)C(=O)O1 (some centres undefined) | 0.45 | > 5 | 0.08 | 0.35 |  |  |  |  |  |  |  |  |  | 
2 | CC(=O)OC[C@]12CC[C@H]3[C@@H](C[C@H]4O[C@]45[C@H](OC(C)=O)C=CC(=O)[C@]35C)[C@]1(O)CC[C@@]2(O)[C@@](C)(O)C1CC(C)=C(C)C(=O)O1 (some centres undefined) | > 5 | > 5 | 0.21 | 1.5 | 2.56 | 2.62 | > 5 | > 5 | > 5 | > 5 | 0.25 | 3.31 |  | 
3 | CC(=O)OC[C@]12CC[C@H]3[C@@H](C[C@@H]4O[C@@]45CC=CC(=O)[C@]35C)[C@]1(O)CC[C@@]2(O)[C@@](C)(O)C1CC(C)=C(C)C(=O)O1 (some centres undefined) | > 5 | > 5 | 0.58 |  | > 5 | 4.56 | > 5 |  | > 5 | > 5 |  | > 5 |  | 
4 | CC(=O)OC[C@]12CC[C@H]3[C@@H](C[C@@H](O)[C@]45O[C@H]4C=CC(=O)[C@]35C)[C@]1(O)CC[C@@]2(O)[C@@](C)(O)C1CC(C)=C(C)C(=O)O1 (some centres undefined) | > 5 | > 5 | > 5 | > 5 | > 5 |  |  |  |  |  |  | > 5 |  | 
5 | CC(=O)OC[C@]12CC[C@H]3[C@@H](C[C@H]4O[C@]45CC=CC(=O)[C@]35C)[C@]1(O)CC[C@@]2(O)[C@@](C)(O)C1CC(C)=C(C)C(=O)O1 (some centres undefined) | 1.57 | 2.29 |  |  | > 5 | 0.11 | > 5 | > 5 | > 5 | 0.11 | 0.16 |  | 115 | 75
6 | CC(=O)OC[C@]12CC[C@H]3[C@@H](C[C@@H](OC(C)=O)[C@]45O[C@H]4C=CC(=O)[C@]35C)[C@]1(O)CC[C@@]2(O)[C@@](C)(O)C1CC(C)=C(C)C(=O)O1 (some centres undefined) | > 5 | > 5 | 1.37 | > 5 | > 5 |  |  |  |  |  |  | > 5 |  | 
7 | CC(=O)OC[C@]12CC[C@H]3[C@@H](C[C@H](OC(C)=O)C4=CC=CC(=O)[C@@]43C)[C@]1(O)CC[C@@]2(O)[C@@](C)(O)C1CC(C)=C(C)C(=O)O1 (some centres undefined) | > 5 | > 5 | 1.14 | 2 | > 5 |  |  |  |  |  |  | > 5 |  | 
8 | CC(=O)OC[C@]12CC[C@H]3[C@@H](C[C@@H](OC(C)=O)C4=CC=CC(=O)[C@@]43C)[C@]1(O)CC[C@@]2(O)[C@@](C)(O)C1CC(C)=C(C)C(=O)O1 (some centres undefined) | > 5 | > 5 | 0.63 | 1 | > 5 |  |  |  |  |  |  | > 5 |  | 
9 | CC(=O)OC[C@]12CC[C@H]3[C@@H](CC(=O)[C@]45O[C@H]4C=CC(=O)[C@]35C)[C@]1(O)CC[C@@]2(O)[C@@](C)(O)C1CC(C)=C(C)C(=O)O1 (some centres undefined) | > 5 | > 5 | > 5 | > 5 | > 5 |  |  |  |  |  |  | > 5 |  | 
10 | CC(=O)OC[C@]12CC[C@H]3[C@@H](C[C@H](O)[C@]45O[C@H]4C=CC(=O)[C@]35C)[C@]1(O)CC[C@@]2(O)[C@@](C)(O)C1CC(C)=C(C)C(=O)O1 (some centres undefined) | > 5 | > 5 | 0.25 | 0.53 | > 5 |  |  |  |  |  |  | > 5 |  | 
11 | CC(=O)OC[C@]12CC[C@H]3[C@@H](C[C@H]4O[C@]45CCCC(=O)[C@]35C)[C@]1(O)CC[C@@]2(O)[C@@](C)(O)C1CC(C)=C(C)C(=O)O1 (some centres undefined) | > 5 | > 5 | 2.56 | > 5 | > 5 |  |  |  |  |  |  | > 5 |  | 
12 | COc1cccc2c1C(=O)c1c(O)c3c(c(O)c1C2=O)C[C@@](O)(C(=O)CO)C[C@@H]3O[C@H]1C[C@H](N)[C@H](O)[C@H](C)O1 [DOXORUBICIN] |  | 0.15 |  |  |  |  |  |  |  |  |  |  |  | 
